The nature of data set [1]: Kinetic solubility of compound. The data set is classed as physicochemical. To be noted: read-out: Kinetic_solubility.
A short description of data set [2]: Lipophilicity, logD of the compound in octanol-buffer at pH 7.4 measured after 18 hrs under shaking condition by reverse phase HPLC-MS analysis. The data set is classed as physicochemical.
Data set [3] in a line: Clearance in iv dosed C57BL/6J mouse. The data set is classed as ADME, organism-based. To be noted: in vivo.
Data set [4] can be described thus: Metabolic stability in human liver microsomes assessed as intrinsic clearance. To be noted: read-out: CLH. The data set is classed as ADME, Microsome. (In general: Liver microsomes are vesicles of endoplasmic reticulum, rich in cytochrome P450 enzymes.)
The target in data set [5] is T1, Farnesyl pyrophosphate synthase (Homo sapiens, UniProt P14324).
T1 sequence (P14324 whole entry): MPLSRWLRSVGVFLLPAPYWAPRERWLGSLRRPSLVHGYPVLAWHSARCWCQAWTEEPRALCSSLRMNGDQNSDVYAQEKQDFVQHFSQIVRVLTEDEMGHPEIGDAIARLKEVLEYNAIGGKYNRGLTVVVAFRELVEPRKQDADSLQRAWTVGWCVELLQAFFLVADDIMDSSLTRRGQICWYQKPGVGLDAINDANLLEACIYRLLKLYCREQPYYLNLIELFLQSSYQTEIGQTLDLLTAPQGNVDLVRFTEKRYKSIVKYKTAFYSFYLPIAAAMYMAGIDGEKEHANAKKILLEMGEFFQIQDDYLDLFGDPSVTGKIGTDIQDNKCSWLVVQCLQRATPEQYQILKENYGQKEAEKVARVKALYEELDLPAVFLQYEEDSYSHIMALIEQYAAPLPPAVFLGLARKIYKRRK
Nature of the data set: Inhibition of recombinant human N-terminal His6-tagged FPPS assessed as reduction in pyrophosphate release using GPP as substrate upto 200 uM incubated for 30 mins followed by substrate addition by PPiLight detection reagent based luminescence assay. To be noted: 0.5 h.

Data set [6] concerns MDR1. Nature of the data set: Apparent permeability in pig LLC-PK1 cells expressing MDR1 measured upto 360 mins. It is filed as ADME, cell-based, Sus scrofa.
Data set [7] in a line: MRT in iv dosed C57BL/6J mouse. To be noted: in vivo. The data set is classed as ADME, organism-based.
Data set [8] can be described thus: Fraction unbound in iv dosed C57BL/6J mouse. The data set is classed as ADME, organism-based. To be noted: in vivo.
Data set [9] in a line: AUC in iv dosed C57BL/6J mouse. The data set is classed as ADME, organism-based. To be noted: in vivo.
In data set [10] the test system is MDR1. Nature of the data set: Efflux ratio of apparent permeability in pig LLC-PK1 cells expressing MDR1 measured upto 360 mins. The data set is classed as ADME, cell-based, Sus scrofa.
Data set [11] is described as follows: Inhibition of recombinant Plasmodium falciparum N-terminal His6-tagged GGPPS expressed in Escherichia coli expression system assessed as reduction in pyrophosphate release using GPP as substrate incubated for 30 mins followed by substrate addition by PPiLight detection reagent based luminescence assay.
The subject of the next data set is Plasmodium falciparum. Nature of the data set: Antimalarial activity against Plasmodium falciparum infected in human RBC assessed as reduction in parasite growth measured after 72 hrs by flow cytometry analysis. It is filed as functional, organism-based. To be noted: Erythrocyte.
The nature of data set [12]: Metabolic stability in mouse liver microsomes assessed as intrinsic clearance. The data set is classed as ADME, Microsome. To be noted: read-out: CLH.
Data set [13] is described as follows: Volume of distribution in iv dosed C57BL/6J mouse. To be noted: in vivo. The data set is classed as ADME, organism-based.
For data set [14], the target named is T2, Geranylgeranyl pyrophosphate synthase (Homo sapiens, UniProt O95749).
T2 sequence (O95749 whole entry): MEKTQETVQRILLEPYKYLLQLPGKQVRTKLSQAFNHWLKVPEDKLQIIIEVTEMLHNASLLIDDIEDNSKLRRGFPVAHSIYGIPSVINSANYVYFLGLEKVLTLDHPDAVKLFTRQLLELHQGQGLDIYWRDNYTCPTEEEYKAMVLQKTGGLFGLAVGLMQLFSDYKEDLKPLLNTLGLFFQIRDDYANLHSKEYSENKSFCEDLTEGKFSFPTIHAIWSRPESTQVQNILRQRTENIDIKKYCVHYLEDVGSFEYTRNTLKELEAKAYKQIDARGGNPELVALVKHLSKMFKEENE
Nature of the data set: Inhibition of recombinant human N-terminal His6-tagged GGPPS assessed as reduction in pyrophosphate release using GPP as substrate upto 200 uM incubated for 30 mins followed by substrate addition by PPiLight detection reagent based luminescence assay. To be noted: 0.5 h.

As a reminder, the logD is the decadic logarithm of the distribution of all forms, ionised or not, between an organic phase and buffer at a given pH. Higher therefore signals a more lipophilic compound. By clearance is commonly meant the volume of plasma or blood freed of the substance per unit of time. One may read the Papp as a coefficient for how fast a substance crosses the barrier. Broadly, the MRT is a mean duration of stay, worked out from the concentration-time curve. As usually defined, the fraction unbound is the share of the substance not bound to proteins or other matrix. Broadly, the AUC is the area under the concentration-time curve, a measure of exposure. By efflux ratio is commonly meant the permeability from basolateral to apical divided by that in the opposite direction, in the common usage. The pIC50 is the negative decadic logarithm of the IC50, by convention in mol/L. One may read the Vd as the apparent volume that relates the amount in the body to the concentration in plasma or blood. Higher therefore signals wide distribution into tissue.

SMILES strings stand for the structures. pIC50: −log10 of the molar value.

As for `O=C(CCCN1CCCOCC1)Nc1cnc(-c2ccc(F)cc2F)s1`, in [1], the solubility kinetic is greater than 100 µg/mL. For the same compound, in data set [2], the logD at 18 h was determined as 2.41. Moreover, the clearance in data set [3] worked out at 25.3 mL/min/kg. Also, the microsomal CLint is less than 1 µL/min/mg in data set [4] and 22 µL/min/mg in data set [12]. The “inhibition (INH)” value in data set [5] and in data set [14] was “Not Active” throughout. The Papp at 6 h in the data set with MDR1 [6] amounted to 9.2 ×10⁻⁶ cm/s. This compound also registered an MRT in [7] of 2.63 h. The same compound displayed a fraction unbound in data set [8] of 0.09. Moreover, the AUC in data set [9] came to 65.8 ng·h/mL. Also, in the data set with MDR1 [10], the efflux ratio at 6 h stood at 1.5. The pIC50 was 5.71 in data set [11] and 7.13 in the data set with Plasmodium falciparum. Moreover, the Vd in data set [13] was determined as 4 L/kg.
As for `O=C(CCCN1CCCCCC1)Nc1cnc(-c2ccc(F)cc2F)s1`, the solubility kinetic in data set [1] is greater than 97 µg/mL. The compound also registered a logD at 18 h in [2] of 2.11. Also, the microsomal CLint in data set [4] is 42 µL/min/mg; in data set [12], 24 µL/min/mg. In addition, the “inhibition (INH)” value in data set [5] and in data set [14] was “Not Active” throughout. The Papp at 6 h in the data set on MDR1 [6] stood at 8.7 ×10⁻⁶ cm/s. Moreover, the efflux ratio at 6 h in the data set with MDR1 [10] was found to be 0.8. Besides, the pIC50 was 6.03 in [11] and 7.42 in the data set with Plasmodium falciparum.
On to `O=C(CCCN1CCCCC1)Nc1cnc(-c2ccc(F)cc2)s1`, for which the solubility kinetic in [1] was greater than 94 µg/mL. Besides, the logD at 18 h in [2] came out at 1.81. For the same compound, the microsomal CLint in data set [4] was 15 µL/min/mg; in data set [12], 14 µL/min/mg. Further, the “inhibition (INH)” value in data set [5] and in data set [14] was “Not Active” in each case. In addition, the Papp at 6 h in the data set with MDR1 [6] amounted to 10.5 ×10⁻⁶ cm/s. For the same compound, in the data set with MDR1 [10], the efflux ratio at 6 h was found to be 1. Moreover, the results for the pIC50 (in [11]; in the data set with Plasmodium falciparum) were 5.79 and 7.14, respectively.

(Values after ChEMBL document CHEMBL4814020, “Nonbisphosphonate inhibitors of Plasmodium falciparum FPPS/GGPPS” (Bioorg Med Chem Lett, 2021).)
